Data reported in ChEMBL document CHEMBL4257591 (J Med Chem, 2018).
The source made the active and inactive calls. The rule behind the calls is not given here.

Key:
Escherichia coli = test: Induction of membrane permeabilization in Escherichia coli KCTC 1682 assessed as PI-positive cells at 4 uM after 1 to 2 hrs by propidium iodide-staining based flow cytometry (reference value: 2.36%); type: functional
[1] = Hemolytic activity in sheep RBC assessed as free hemoglobin level at 16 uM by ELISA relative to control; type: ADME, cell-based, Ovis aries, Erythrocyte; conditions: sheep red blood cells (erythrocytes), read-out: Activity
Staphylococcus aureus [2] = test: Induction of cytoplasmic membrane depolarization in Staphylococcus aureus KCTC 1621 at 2 times MIC concentration by DiSC3(5)-dye based fluorescence spectrophotometry; type: functional, organism-based
RAW264.7 = test: Cytotoxicity against mouse RAW264.7 cells at 32 uM after 48 hrs by MTT assay relative to control; type: cell-based; conditions: raw264.7, 48 h
Staphylococcus aureus [3] = test: Induction of membrane permeabilization in Staphylococcus aureus KCTC 1621 at 2 times MIC concentration up to 300 secs by SYTOX green uptake assay; type: functional, organism-based
Staphylococcus aureus [4] = test: Induction of membrane permeabilization in Staphylococcus aureus KCTC 1621 at 2 to 8 times MIC concentration up to 300 secs by SYTOX green uptake assay; type: functional, organism-based

Q: Which results are given for CC[C@H](C)[C@H](NC(=O)CN)C(=O)NCC(=O)N[C@@H](C)C(=O)N[C@H](C(=O)N[C@@H](CC(C)C)C(=O)N[C@@H](CCCCN)C(=O)N[C@H](C(=O)N[C@@H](CC(C)C)C(=O)N[C@H](C(=O)N[C@H](C(=O)NCC(=O)N[C@@H](CC(C)C)C(=O)N1CCC[C@H]1C(=O)N[C@@H](C)C(=O)N[C@@H](CC(C)C)C(=O)N[C@H](C(=O)N[C@@H](CO)C(=O)N[C@@H](Cc1c[nH]c2ccccc12)C(=O)N[C@H](C(=O)N[C@@H](CCCCN)C(=O)N[C@@H](CCCNC(=N)N)C(=O)N[C@@H](CCCCN)C(=O)N[C@@H](CCCNC(=N)N)C(=O)N[C@@H](CCC(N)=O)C(=O)N[C@@H](CCC(N)=O)C(N)=O)[C@@H](C)CC)[C@@H](C)CC)[C@@H](C)O)[C@@H](C)O)C(C)C)C(C)C [MELITTIN]?
A: Activity (Escherichia coli): 55.5%; hemolysis at 16 µM [1]: 63%; Activity (Staphylococcus aureus [2]): Active; Activity (RAW264.7): 100%; Activity (Staphylococcus aureus [3]): Active; Activity (Staphylococcus aureus [4]): inactive
